This is an account of results in PubChem BioAssay (NCI).

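Assay format: 96-well plates, 48-hour exposure. At the TGI there is no net growth.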 Where only a bound is given, the exact number is not on record here.

The test system of the first test is MOLT-4 leukemia. The test is described as follows: DTP human tumour cell line panel, 48 h.
A word on the TGI: it is the concentration giving total growth inhibition. The low end stands for more potent growth arrest, the high end for less potent growth arrest. `CC(C)C1=C(Cc2ccccc2)C(=O)O/C1=C\c1cc(Cl)c(O)c(Cl)c1` had a TGI of 60.7 µM.

`COc1cc2c(cc1O)C1C(O)C(O)C=C3CCN(C2)C31` (centres undefined) registered a TGI of 12.2 µM.

In turn, `C[C@@H]1CCC2[C@@H](C)[C@@H](OCCO[C@H]3OC4O[C@@]5(C)CCC6[C@H](C)CCC([C@H]3C)[C@@]46OO5)OC3O[C@@]4(C)CCC1[C@]32OO4` (some centres undefined) displayed a TGI greater than 100 µM.

`Cc1cc(OCc2nnc3n2N=C(c2cc(F)c(Cl)cc2Cl)/C(=C/c2ccc(Cl)cc2)S3)ccc1Cl` came in with a TGI of 19.8 µM.

For the compound `CC(C)=CCc1c(O)ccc2ccc(=O)oc12`, the TGI is 84.2 µM.

A further test has as its system SK-OV-3 ovarian. The test is described as follows: DTP human tumour cell line panel, 48 h.
The compound `CCOC(=O)c1csc(NC(=O)CN2CCN(C)CC2)n1` came in with a TGI greater than 100 µM.

As for `CC(C)(C)[Si](C)(C)OC1/C(=C/C#N)C(n2ccc(=O)[nH]c2=O)OC1CO` (centres undefined), the TGI was greater than 100 µM.

Compound `CC#C[P+](c1ccccc1)(c1ccccc1)c1ccccc1` yielded a TGI of 38.5 µM.

Regarding `CCCC(O)C(NC(=O)CCl)C(=O)O` (centres undefined), the TGI is greater than 100 µM.

The compound `CN1C(=O)C(CC=O)(C(C)(C)C)c2ccccc21` (centres undefined) had a TGI greater than 100 µM.

As to `COc1cc(/C=C/C(=O)O)ccc1C(=O)OCc1ccccc1`, the total growth inhibition concentration (TGI) was greater than 100 µM.

Take `O=C(CC(=O)c1ccccc1)CC(O)(c1ccccc1)c1ccccc1`: the TGI was 76 µM.

`Cc1cccc(C(C)C)c1NC(=O)CC1Sc2ccccc2NC1=O` (centres undefined) came in with a TGI greater than 100 µM.

In turn, `CC(C)C1=C(Cc2ccccc2)C(=O)O/C1=C\c1cc(Cl)c(O)c(Cl)c1` registered a TGI of 39.7 µM. This lies in the double-digit micromolar range.

`COc1cc2c(cc1O)C1C(O)C(O)C=C3CCN(C2)C31` (centres undefined) had a TGI of 22.9 µM.

In turn, `C[C@@H]1CCC2[C@@H](C)[C@@H](OCCO[C@H]3OC4O[C@@]5(C)CCC6[C@H](C)CCC([C@H]3C)[C@@]46OO5)OC3O[C@@]4(C)CCC1[C@]32OO4` (some centres undefined) came in with a TGI greater than 100 µM.

The compound `Cc1cc(OCc2nnc3n2N=C(c2cc(F)c(Cl)cc2Cl)/C(=C/c2ccc(Cl)cc2)S3)ccc1Cl` showed a TGI greater than 100 µM.

`CC(C)=CCc1c(O)ccc2ccc(=O)oc12` gave a TGI greater than 100 µM.

A further test deals with SN12C renal. The test is described as follows: DTP human tumour cell line panel, 48 h.
The compound `CC#C[P+](c1ccccc1)(c1ccccc1)c1ccccc1` registered a TGI of 4.13 µM.

In turn, `CCCC(O)C(NC(=O)CCl)C(=O)O` (centres undefined) returned a TGI greater than 100 µM.

Turning to `CN1C(=O)C(CC=O)(C(C)(C)C)c2ccccc21` (centres undefined), the TGI was greater than 100 µM.

`COc1cc(/C=C/C(=O)O)ccc1C(=O)OCc1ccccc1` gave a TGI greater than 100 µM.

Turning to `O=C(CC(=O)c1ccccc1)CC(O)(c1ccccc1)c1ccccc1`, the TGI came out at 19.3 µM.

For `O=C(O)c1cccnc1`, the TGI was greater than 100 µM.

In the case of `Cc1cccc(C(C)C)c1NC(=O)CC1Sc2ccccc2NC1=O` (centres undefined), the TGI was greater than 100 µM.

Compound `CC(C)C1=C(Cc2ccccc2)C(=O)O/C1=C\c1cc(Cl)c(O)c(Cl)c1` gave a TGI of 35.6 µM.

`COc1cc2c(cc1O)C1C(O)C(O)C=C3CCN(C2)C31` (centres undefined) gave a TGI of 14.6 µM.

As to `C[C@@H]1CCC2[C@@H](C)[C@@H](OCCO[C@H]3OC4O[C@@]5(C)CCC6[C@H](C)CCC([C@H]3C)[C@@]46OO5)OC3O[C@@]4(C)CCC1[C@]32OO4` (some centres undefined), the concentration for total growth inhibition (TGI) is greater than 100 µM.

The compound `CC(C)=CCc1c(O)ccc2ccc(=O)oc12` displayed a TGI greater than 100 µM.

For the next test, the system named is DU-145 prostate. The test is described as follows: DTP human tumour cell line panel, 48 h.
In the case of `CCOC(=O)c1csc(NC(=O)CN2CCN(C)CC2)n1`, the TGI was greater than 100 µM.

Compound `CC(C)(C)[Si](C)(C)OC1/C(=C/C#N)C(n2ccc(=O)[nH]c2=O)OC1CO` (centres undefined) returned a TGI greater than 100 µM.

In the case of `CN1C(=O)C(CC=O)(C(C)(C)C)c2ccccc21` (centres undefined), the TGI is greater than 100 µM.

Compound `O=C(O)c1cccnc1` returned a TGI greater than 100 µM.

In turn, `CC(C)C1=C(Cc2ccccc2)C(=O)O/C1=C\c1cc(Cl)c(O)c(Cl)c1` showed a TGI of 30.3 µM.

`Cc1cc(OCc2nnc3n2N=C(c2cc(F)c(Cl)cc2Cl)/C(=C/c2ccc(Cl)cc2)S3)ccc1Cl`: the TGI was 36.6 µM.

Another test deals with HS 578T breast. The test is described as follows: DTP human tumour cell line panel, 48 h.
Turning to `CN1C(=O)C(CC=O)(C(C)(C)C)c2ccccc21` (centres undefined), the TGI is greater than 100 µM.

On to `O=C(O)c1cccnc1`, for which the TGI is greater than 100 µM.

For the compound `CC(C)C1=C(Cc2ccccc2)C(=O)O/C1=C\c1cc(Cl)c(O)c(Cl)c1`, the TGI came out at 67.7 µM. This counts as double-digit micromolar.

`C[C@@H]1CCC2[C@@H](C)[C@@H](OCCO[C@H]3OC4O[C@@]5(C)CCC6[C@H](C)CCC([C@H]3C)[C@@]46OO5)OC3O[C@@]4(C)CCC1[C@]32OO4` (some centres undefined) returned a TGI greater than 100 µM.

As for `Cc1cc(OCc2nnc3n2N=C(c2cc(F)c(Cl)cc2Cl)/C(=C/c2ccc(Cl)cc2)S3)ccc1Cl`, the TGI was 46.1 µM.

A further test has as its system NCI-H23 lung. The test is described as follows: DTP human tumour cell line panel, 48 h.
`CCOC(=O)c1csc(NC(=O)CN2CCN(C)CC2)n1`: the TGI was greater than 100 µM.

Take `CC(C)(C)[Si](C)(C)OC1/C(=C/C#N)C(n2ccc(=O)[nH]c2=O)OC1CO` (centres undefined): the TGI was greater than 100 µM.

`CC#C[P+](c1ccccc1)(c1ccccc1)c1ccccc1`: the TGI turned out to be 7.03 µM.

In the case of `CCCC(O)C(NC(=O)CCl)C(=O)O` (centres undefined), the concentration for total growth inhibition (TGI) was greater than 100 µM.

For `CN1C(=O)C(CC=O)(C(C)(C)C)c2ccccc21` (centres undefined), the TGI is greater than 100 µM.

Take `COc1cc(/C=C/C(=O)O)ccc1C(=O)OCc1ccccc1`: the TGI is greater than 100 µM.

`O=C(CC(=O)c1ccccc1)CC(O)(c1ccccc1)c1ccccc1` showed a TGI of 18.8 µM.

In turn, `O=C(O)c1cccnc1` yielded a TGI greater than 100 µM.

In the case of `Cc1cccc(C(C)C)c1NC(=O)CC1Sc2ccccc2NC1=O` (centres undefined), the TGI is greater than 100 µM.

As for `CC(C)C1=C(Cc2ccccc2)C(=O)O/C1=C\c1cc(Cl)c(O)c(Cl)c1`, the TGI was 32.9 µM.

The compound `COc1cc2c(cc1O)C1C(O)C(O)C=C3CCN(C2)C31` (centres undefined) showed a TGI of 6.39 µM.

For the compound `C[C@@H]1CCC2[C@@H](C)[C@@H](OCCO[C@H]3OC4O[C@@]5(C)CCC6[C@H](C)CCC([C@H]3C)[C@@]46OO5)OC3O[C@@]4(C)CCC1[C@]32OO4` (some centres undefined), the TGI came out at 68.9 µM.

The compound `Cc1cc(OCc2nnc3n2N=C(c2cc(F)c(Cl)cc2Cl)/C(=C/c2ccc(Cl)cc2)S3)ccc1Cl` came in with a TGI of 79.9 µM.

For `CC(C)=CCc1c(O)ccc2ccc(=O)oc12`, the TGI is greater than 100 µM.
